Test results: patent US7378375B1, “Substituted pyridine herbicides” (Syngenta Crop Protection, Inc., priority 2000, dated 2008)

What was measured:
[1] = tested on: Monocotyledonous and dicotyledonous test plants; test: Herbicidal action before emergence of the plants (pre-emergence action), greenhouse pot test, 9-level rating after 4 weeks; assay type: in vivo; set-up: key: 9-level scale: 1 = complete damage, 9 = no effect; conditions: 250 g/ha, rated after 4 weeks, 9-level scale
Method: Herbicidal Action Before Emergence of the Plants (Pre-Emergence Action)
(§1) Monocotyledonous and dicotyledonous test plants are sown in standard soil in pots. Immediately after sowing, the test substances are sprayed on at an optimum dosage (500 l of water/ha) as an aqueous suspension (prepared from a wettable powder (example F3, b) according to WO 97/34485) or emulsion (prepared from an emulsion concentrate (example F1, c) according to WO 97/34485). The test plants are then grown under optimum conditions in a greenhouse.
After a test period of 4 weeks, the test is evaluated using a 9-level scale of ratings (1=complete damage, 9=no effect). Ratings of 1 to 4 (in particular 1 to 3) mean good to very good herbicidal action.

[2] = tested on: Monocotyledonous and dicotyledonous test plants; test: Post-emergence herbicidal action, greenhouse pot test, sprayed at the 2- to 3-leaf stage, 9-level rating after 2 to 3 weeks; assay type: in vivo; set-up: key: 9-level scale: 1 = complete damage, 9 = no effect; conditions: 250 g/ha, rated after 2 to 3 weeks, 9-level scale
Method: Post-Emergence Herbicidal Action
as §1, with “grown” for “sown”, “At the 2- to 3-leaf stage of the test plants,” for “Immediately after sowing,”, “sprayed” for “sprayed on”, “at” for “at an”, “grown further” for “grown”
After a test period of 2 to 3 weeks, the test is evaluated using a 9-level scale of rating (1=complete damage, 9=no effect). Ratings of 1 to 4 (in particular 1 to 3) mean good to very good herbicidal action.

| SMILES | Pre-emergence action rating, Abutilon [1] | Pre-emergence action rating, Amaranthus [1] | Pre-emergence action rating, Chenop. [1] | Pre-emergence action rating, Digitaria [1] | Pre-emergence action rating, Echino. [1] | Pre-emergence action rating, Panicum [1] | Post-emergence action rating, Abutilon [2] | Post-emergence action rating, Amaranth [2] | Post-emergence action rating, Chenop. [2] | Post-emergence action rating, Digitaria [2] | Post-emergence action rating, Echino. [2] | Post-emergence action rating, Ipopur. [2] | Post-emergence action rating, Panicum [2] | Post-emergence action rating, Xanth. [2] |
| --- | --- | --- | --- | --- | --- | --- | --- | --- | --- | --- | --- | --- | --- | --- |
| COCc1nc(C(F)(F)F)ccc1C(=O)c1c(C)nn(C)c1O [A1-C2] | 4 | 3 | 1 | 3 | 3 | 6 | 3 | 2 | 4 | 8 | 4 | 3 | 7 | 4 |
| COCc1nc(C(F)(F)F)ccc1C(=O)c1cnn(C)c1O [A1-C5] | 2 | 2 | 1 | 2 | 1 | 2 | 2 | 2 | 1 | 2 | 2 | 2 | 4 | 4 |
| CCOCc1nc(C(F)(F)F)ccc1C(=O)c1cnn(C)c1O [A2-C5] | 1 | 1 | 1 | 2 | 2 | 1 | 2 | 1 | 1 | 2 | 2 | 2 | 1 | 2 |
| CC(C)OCc1nc(C(F)(F)F)ccc1C(=O)c1cnn(C)c1O [A3-C5] | 1 | 1 |  | 2 | 2 | 1 | 3 | 3 | 1 | 4 | 3 | 3 | 3 | 3 |
| COCOCc1nc(C(F)(F)F)ccc1C(=O)C1=C(O)C2CCC(C2)C1=O (stereo not drawn) [A8-B52] | 1 | 1 |  | 1 | 1 | 1 | 1 | 1 | 1 | 1 | 1 | 1 | 1 | 2 |
| COCCOCc1nc(C(F)(F)F)ccc1C(=O)C1=C(O)CCCC1=O [A10-B1] | 1 | 1 | 1 | 2 | 2 | 2 | 2 | 2 | 1 | 2 | 2 | 2 | 2 | 2 |
| COCCOCc1nc(C(F)(F)F)ccc1C(=O)C1=C(O)CCC(C)(C)C1=O [A10-B3] | 1 | 1 | 1 | 1 | 1 | 1 | 1 | 1 | 1 | 1 | 3 | 2 | 1 | 1 |
| COCCOCc1nc(C(F)(F)F)ccc1C(=O)C1=C(O)C(C)(C)CC(C)C1=O (stereo not drawn) [A10-B4] | 3 | 1 | 1 | 3 | 1 | 2 | 1 | 2 | 1 | 1 | 2 | 1 | 1 | 2 |
| CCOC(=O)C1(C)CCC(=O)C(C(=O)c2ccc(C(F)(F)F)nc2COCCOC)=C1O (stereo not drawn) [A10-B14] | 1 | 1 | 1 | 6 | 3 | 3 | 2 | 2 | 1 | 2 | 3 | 2 | 2 | 2 |
| COCCOCc1nc(C(F)(F)F)ccc1C(=O)C1=C(O)CCC2(CC2)C1=O [A10-B17] | 4 | 2 | 1 | 1 | 1 | 1 | 2 | 2 | 1 | 1 | 2 | 2 | 2 | 2 |
| COCCOCc1nc(C(F)(F)F)ccc1C(=O)C1=C(O)C(C)(C)ON(C)C1=O [A10-B25] | 1 | 1 | 1 | 1 | 2 | 1 | 3 | 2 | 1 | 4 | 4 | 3 | 3 | 3 |
| COCCOCc1nc(C(F)(F)F)ccc1C(=O)C1=C(O)C(C)(C)C(=O)C(C)(C)C1=O [A10-B39] | 1 | 1 | 1 | 1 | 1 | 1 | 1 | 1 | 1 | 3 | 3 | 2 | 1 | 2 |
| CCN(CC)CC.COCCOCc1nc(C(F)(F)F)ccc1C(=O)C1=C(O)C2CCC(C2)C1=O (stereo not drawn) [A10-B52 (Et3NH+)] | 1 | 1 | 1 | 1 | 2 | 1 | 2 | 2 | 1 | 2 | 2 | 2 | 2 | 2 |
